Reference: ChEMBL document CHEMBL4765335, “Privileged scaffold-based design to identify a novel drug-like 5-HT receptor-preferring agonist to target Fragile X syndrome” (Eur J Med Chem, 2020)

Experiment: in vitro
Settings: rat, liver microsomes

SMILES	remaining at 0.5 h, 10 µM [%]
COc1ccc(-c2ccccc2C2CCN(CCCCOc3cnccn3)CC2)cc1	6
COc1ccc(-c2ccccc2N2CCN(C[C@@H](O)COc3ccc(-c4cn5ccccc5n4)cc3)CC2)cc1	48
COc1ccc(-c2ccccc2N2CCN(CCCCOc3ccccc3C#N)CC2)cc1	7
